Assay results published in patent US9980967B1, “Method for overcoming drug resistance of EGFR mutation and cancerous stemness of human non-small cell lung carcinoma” (NATIONAL CHIAO TUNG UNIVERSITY, priority 2017, dated 2018).

What was measured:
[1] = tested on: A549 cells; test: Annexin V/PI apoptosis flow cytometry in A549 cells; format: cell-based, human; conditions: 30 μM for 24 hours
Experimental: At the end of treatment, apoptosis was measured by Annexin VPI staining using flow cytometry analysis. The population of Annexin V+/PI− cells represents cells undergoing early apoptosis (low right), whereas the fraction of Annexin V+/PI+ cell are those undergoing late apoptosis (upper right). The representative flow data were shown from one of three separate experiments with similar findings.
Please refer to FIG. 14. The expressions of phosphorylated EGFR and total EGFR proteins after treatment with SP101 (10˜40 μM for 24 hours) in the K-Ras mutation A549 cells were analyzed by Western blot. […] Please refer to FIG. 15. We further examined the apoptosis levels of SP101 in A549 cells by Annexin V and PI staining. The cells were trypsinized and then incubated with propidium iodide (5 μl) and Annexin V-FITC (5 μl) at room temperature for 5 min before flow cytometry.

[2] = tested on: Survivin and cleaved Caspase 3 in xenograft tumor tissues; test: Western blot and IHC of Survivin and cleaved Caspase 3 in xenograft tumor tissues; format: in vivo, nude mice
Text: FIG. 11 is a result of IHC immunohistochemistry staining showing that SP101 enhanced Caspase 3 protein level in NSCLC tumor tissues. Representative photographs were by IHC staining the active Caspase 3 proteins in the tumor sections. Positive cells were visualized by DAB staining (brown), counterstain with nuclei by hematoxylin.
Please refer to FIG. 10. The xenograft tumor tissues from each group were homogenized and the total lysates were subjected to Western blot analysis using specific antibodies, including rabbit anti-Survivin, rabbit anti-cleaved Caspase 3 and mouse anti-actin. Representative immunoblotting data were shown from one of two separate experiments with similar findings. Actin was an internal control protein. SP101 reduced Survivin protein level; meanwhile, SP101 induced the apoptotic protein level of cleaved Caspase 3.

[3] = tested on: Survivin and cleaved-form Caspase 3 in H1975 cells; test: Western blot and immunofluorescence of Survivin and cleaved Caspase 3 in H1975 cells; format: cell-based, human
Text: (§1) FIG. 5 is a result of immunofluorescence staining and confocal microscopy. The green color indicated location of Survivin protein excited with 488 nm. The β-tubulin protein was stained with Cy3-labeled mouse anti-β-tubulin antibody (red color). The fluorescence intensity of β-tubulin was excited with 543 nm and the emission was collected in range of 560-580 nm. Blue color indicated location of nuclei following stained with Hoechst 33258 and was excited with 405 nm and the emission was collected in range of 415-450 nm. Overlapping localization is shown in the merged images.
as §1, with “FIG. 6” for “FIG. 5”, “of cleaved Caspase 3” for “of Survivin”
Reduction of Survivin protein expression has shown to inhibit tumor growth in NSCLC. Please refer to FIG. 4. H1975 cells with EGFR (T790M) mutation were treated with or without SP101 (20˜30 μM for 24 hours) and analyzed by Western blot. […] Actin was an internal control protein.
Further, immunofluorescence staining and confocal microscopy were utilized to determine the expression and cell morphology of Survivin and cleaved-form Caspase 3 after treatment with SP101 in H1975 cells with EGFR (T790M) mutation. The cells were treated with or without 30 μM of SP101 for 24 hours. At the end of treatment, the cells were fixed with 4% paraformaldehyde at 37 °C for 1 hour. The fixed cells were incubated with rabbit anti-Survivin antibody or rabbit anti-cleaved caspase-3 antibody at 4 °C overnight. Then the cells were stained with goat anti-rabbit IgG Dylight 488 at 37 °C for 1 hour. Please refer to FIGS. 5 and 6. The green fluorescence (Dylight 488) indicated location of Survivin and cleaved-form Caspase 3. The blue fluorescence (Hoechst 33258) and red fluorescence (Cy3) represented nucleus and β-tubulin respectively. Treatment with 30 μM SP101 for 24 hours, Survivin protein expression was reduced; in addition, the apoptotic bodies and cleaved-form Caspase 3 protein were induced.

[4] = xenograft tumor tissues, Western blot
[5] = 30 μM for 24 hours, immunofluorescence and confocal microscopy
[6] = 20~30 μM for 24 hours, Western blot

CCCCCCCCCCCCOC(=O)CCC(=O)N1CCN(CCCOc2cc3c(Nc4ccc(F)c(Cl)c4)ncnc3cc2OC)CC1 [SP101, dodecyl 4-(4-(3-(4-(3-chloro-4-fluorophenylamino)-7-methoxyquinazolin-6-yloxy)propyl)piperazin-1-yl)-4-oxobutanoate]
levels of Annexin V+/PI− cells (early apoptosis) and Annexin V+/PI+ cells (late apoptosis) [1]: significantly increased
Survivin protein level [2, 4]: reduced
apoptotic protein level of cleaved Caspase 3 [2, 4]: induced
reduction of Survivin protein and increasing of cleaved Caspase 3 protein level, compared with Gefitinib [2, 4]: more potent
active forms of Caspase 3 protein ([2]; xenografted NSCLC tumors, IHC staining, compared with control and Gefitinib groups): significantly induced
Survivin protein expression [3, 5]: reduced
apoptotic bodies and cleaved-form Caspase 3 protein [3, 5]: induced
Survivin protein level [3, 6]: reduced
apoptotic protein level of cleaved-form Caspase 3 [3, 6]: induced
